As a reminder, the Km is the substrate concentration at which the rate is half of its maximum. As a reminder, the stoichiometry N is the number of molecules, sites or subunits per partner or assembly.

The source of these data is article PMC4848734, “Purification and Characterization of a Novel Intracellular Sucrase Enzyme of Leishmania donovani Promastigotes” (Biochemistry Research International, 2016).

Test [1] has as its system T1, intracellular sucrase.
T1 construct: native purification from promastigote cell-free extract; ~56 kDa subunit (SDS-PAGE), ~112 kDa native, proposed homodimer; gene not identified
The test can be described thus: colorimetric glucose release ([…] nm), Lineweaver-Burk. The class given is biochemical, Leishmania donovani. To be noted: 50 mM sodium acetate, pH 6.0, 30°C, 30 min; 0.4-5.0 mM sucrose; purified enzyme.

The target of test [2] is intracellular sucrase of Leishmania donovani promastigotes (Leishmania donovani (endogenous in promastigotes, strain MOHM/IN/1978/UR6)). The test can be described thus: SEC; Sephacryl S-200 column (120 x 1 cm), Buffer A (50 mM Tris-HCl, pH 7.4), 22 mL/hr; ammonium sulfate fraction of cell-free extract, sucrase followed by activity; native size from calibration graph compared with the subunit size in 10% SDS-PAGE. On the technique in general: In gel filtration, larger molecules generally elute earlier.

As to `OC[C@H]1O[C@@](CO)(O[C@H]2O[C@H](CO)[C@@H](O)[C@H](O)[C@H]2O)[C@@H](O)[C@@H]1O` [sucrose], the Km in test [1] amounted to 1610 µM.

As for “intracellular sucrase of Leishmania donovani promastigotes (enzyme)”, in test [2], the stoichiometry N was 2.
